Patent publication US20220324835A1 (Nurix Therapeutics, Inc., priority 2018, published 2022)

Key:
[1] = test system: human T-cells with allogenic immature dendritic cells; test: Allogenic mixed lymphocyte reaction (MLR), T-cell proliferation; format: cell-based; conditions: 120 h, 5 days, baseline T-cells without Cbl-b inhibitor, read-out: Proliferation, fold change over baseline
Procedure: Cbl-b inhibitor effects on primary human T-cells were also evaluated in the context of an allogenic mixed lymphocyte reaction (MLR). Allogenic immature dendritic cells were generated under the following conditions. Peripheral blood mononuclear cells (PBMC) were obtained either: 1) by using Ficoll-Paque™ (GE Healthcare) for separation of peripheral blood hematopoietic cells from huffy coats of healthy human donors; or 2) directly from LeukoPak donations. […] Monocytes were cultured with 30 ng/mL of recombinant human GM-CSF and 20 ng/mL of recombinant human IL-4 for seven days to generate immature dendritic cells. Monocytes and T-cells were either isolated fresh from peripheral blood or thawed from frozen stocks. Human T-cells were isolated, labeled with CFSE and incubated with inhibitors as described above. […] Proliferation of the T-cells was evaluated by flow cytometry.
Readouts for the allogenic mixed lymphocyte reaction were reported as fold change over baseline. Baseline for this study was the measurement obtained from total human T-cells stimulated with allogenic immature dendritic cells, wherein the T-cells were not incubated with a Cbl-b inhibitor (Table 5). Increases in proliferation greater than 2-fold over baseline were considered a positive response (Table 5).

[2] = test system: T-cell; test: IL-2 secretion from T-cells stimulated with anti-CD3 antibody alone (Biological Example 2); format: cell-based; conditions: primary human total T-cells, read-out: IL-2 secretion, Anti-CD3 stimulation, fold change over baseline; for fold induction at 1 µM: 1 μM compound; for fold induction at 8 µM: 8 μM compound
[3] = test system: T-cells; test: In vivo activity: CD25 expression on CD4+ or CD8+ T-cells of mice stimulated with anti-CD3 antibody; conditions: 2 μg anti-CD3 antibody, 24 hours
Procedure: A method of determining the pharmacodynamic profile of Cbl-b inhibitors was performed by dosing strains of mice with competent immune systems such as C57BL/6 or BALB/c with a Cbl-b inhibitor. The Cbl-b inhibitor was dissolved in a suitable formulation and administered by one of various routes such as intravenous (IV), intraperitoneal (IP), subcutaneous (SC), or oral (PO), at a suitable dose level and frequency (e.g. twice per day BID or thrice per day TID) as informed by prior pharmacokinetic and tolerability studies. Following administration of the Cbl-b inhibitor, T-cells and indirectly other immune cells (e.g. via cytokine production) were stimulated in vivo by administration of an anti-CD3 antibody or antigen-binding fragment thereof in PBS at defined amounts such as 2 μg or 10 μg per animal by routes such as IV or IP (See Hirsh et al., J. Immunol., 1989; Ferran, et al., Eur. J. Immunol., 1990). Additional study control arms included groups of mice treated with a vehicle formulation alone (i.e., formulation without the Cbl-b inhibitor and anti-CD3 antibody), a formulation containing the Cbl-b inhibitor alone, a formulation containing the anti-CD3 antibody alone, PBS alone, or combinations of these agents. The level of immune activation was then assessed by analysis of plasma cytokine levels and/or expression of activation markers on immune cells (e.g. T-cells). Blood or lymphoid organs (e.g. spleen) were collected at defined time points (e.g. 8 hours or 24 hours). Blood samples were processed to collect plasma for determination of cytokine levels using standard methods known in the art. Cytokines measured included IL-2, IFNγ, and TNFα. Additional blood samples and lymphoid tissues were processed for flow cytometric analysis of immune cells (e.g. T-cells) using standard methods to determine expression of cell type-specific markers and activation markers such as CD25 and/or CD69. Augmentation of immune stimulation by Cbl-b inhibitor administration was assessed by comparing the relative concentrations of cytokines in plasma, or the expression levels of activation markers on immune cells between appropriate groups (e.g. mice treated with Cbl-b inhibitor and 2 μg anti-CD3 antibody versus mice treated with vehicle and 2 μg anti-CD3 antibody).
Cbl-b inhibitors were tested to determine their ability to induce or enhance the level of cytokines (e.g. IL-2, IFNγ, and TNFα) in blood obtained from treated mice stimulated with an anti-CD3 antibody, which is indicative of modulation of the immune response. Cbl-b inhibitors were also tested to determine their ability to induce or enhance the expression of cell surface markers on T-cells (e.g. CD25 and/or CD69) isolated from treated mice stimulated with an anti-CD3 antibody, which is indicative of modulation of the immune response.
Readouts were reported as fold change over baseline. The fold change was calculated from the mean value of mice treated with Cbl-b inhibitor and 2 μg anti-CD3 antibody, with the baseline defined as the mean value of mice treated with vehicle and 2 μg anti-CD3 antibody. Increases in the percentage of cells with surface expression of CD25 on CD4+ T-cells or CD8+ T-cells greater than 1.5-fold over baseline at 24 hours were considered a positive response. Increases in the plasma concentration of IL-2, IFNγ, and TNFα greater than 1.5-fold over baseline at 8 hours post-stimulation were also considered a positive response (Table 8). Fold changes were ranked into bins according to their readouts as follows: A indicates >2.50, B indicates 2.01-2.50, C indicates 1.51-2.00, D indicates 1.00-1.50, and E indicates <1.00.

| Compound | fold induction at 3 µM [1] | fold induction at 10 µM [1] | fold induction at 1 µM [2] | fold induction at 8 µM [2] | CD4+ T-cell % CD25+ ([3]; 90 mpk PO BID) | CD8+ T-cell % CD25+ ([3]; 90 mpk PO BID) | CD4+ T-cell % CD25+ ([3]; 135 mpk PO BID) | CD8+ T-cell % CD25+ ([3]; 135 mpk PO BID) | CD4+ T-cell % CD25+ ([3]; 180 mpk PO BID) | CD8+ T-cell % CD25+ ([3]; 180 mpk PO BID) |
| --- | --- | --- | --- | --- | --- | --- | --- | --- | --- | --- |
| C[C@H](Cc1nncn1C)c1cccc(NC(=O)c2n[nH]c3c2CCC3)c1 [Compound 313, (R)-N-(3-(1-(4-Methyl-4H-1,2,4-triazol-3-yl)propan-2-yl)phenyl)-1,4,5,6-tetrahydrocyclopenta[c]pyrazole-3-carboxamide] | < 2 | < 2 | – | – | – | – | – | – | – | – |
| Cc1cc(C(=O)Nc2cccc([C@@H](C)Cc3nncn3C)c2)nc(C2CC2)n1 [Compound 325, (S)-2-Cyclopropyl-6-methyl-N-(3-(1-(4-methyl-4H-1,2,4-triazol-3-yl)propan-2-yl)phenyl)pyrimidine-4-carboxamide] | < 2 | < 2 | – | – | – | – | – | – | – | – |
| Cn1cnnc1CC1(c2cccc(NC(=O)c3nc4c(C(F)(F)F)cccc4[nH]3)c2)COC1 [Compound 335, N-(3-{3-[(4-methyl-1,2,4-triazol-3-yl)methyl]oxetan-3-yl}phenyl)-4-(trifluoromethyl)-1H-1,3-benzodiazole-2-carboxamide] | < 2 | < 2 | – | – | – | – | – | – | – | – |
| Cc1n[nH]c(C)c1-c1cc2c(c(C(F)(F)F)c1)CN(c1cccc(C3(Cc4nncn4C)COC3)c1)C2=O [Compound 385, 6-(3,5-dimethyl-1H-pyrazol-4-yl)-2-(3-{3-[(4-methyl-4H-1,2,4-triazol-3-yl)methyl]oxetan-3-yl}phenyl)-4-(trifluoromethyl)-2,3-dihydro-1H-isoindol-1-one] | < 2 | < 2 | 0.101 to 0.15 | > 0.201 | – | – | – | – | – | – |
| C[C@H](Cc1nncn1C)c1cccc(N2Cc3c(cc(CN4CC(O)C4)cc3C(F)(F)F)C2=O)c1 [Compound 393, (R)-6-((3-hydroxyazetidin-1-yl)methyl)-2-(3-(1-(4-methyl-4H-1,2,4-triazol-3-yl)propan-2-yl)phenyl)-4-(trifluoromethyl)isoindolin-1-one] | < 2 | 2.01 to 3 | > 0.201 | > 0.201 | – | – | – | – | – | – |
| C[C@H](Cc1nncn1C)c1cccc(N2Cc3c(cc(CN4CC(C)(O)C4)cc3C(F)(F)F)C2=O)c1 [Compound 397] | < 2 | 2.01 to 3 | 0.151 to 0.2 | > 0.201 | – | – | – | – | – | – |
| C[C@H](Cc1nncn1C)c1cccc(N2Cc3c(cc(CN4CC[C@](C)(O)C4)cc3C(F)(F)F)C2=O)c1 [Compound 398, 6-(((S)-3-hydroxy-3-methylpyrrolidin-1-yl)methyl)-2-(3-((R)-1-(4-methyl-4H-1,2,4-triazol-3-yl)propan-2-yl)phenyl)-4-(trifluoromethyl)isoindolin-1-one] | 2.01 to 3 | 2.01 to 3 | 0.101 to 0.15 | > 0.201 | – | – | – | – | – | – |
| C[C@H](Cc1nncn1C)c1cccc(N2Cc3c(cc(CN4CC[C@H](F)C4)cc3C(F)(F)F)C2=O)c1 [Compound 399, 6-(((S)-3-fluoropyrrolidin-1-yl)methyl)-2-(3-((R)-1-(4-methyl-4H-1,2,4-triazol-3-yl)propan-2-yl)phenyl)-4-(trifluoromethyl)isoindolin-1-one] | 2.01 to 3 | > 3.01 | 0.151 to 0.2 | > 0.201 | – | – | – | – | – | – |
| Cn1cnnc1C(F)(F)[C@](C)(F)c1cccc(N2Cc3c(cc(CN4CCC(F)(F)C4)cc3C(F)(F)F)C2=O)c1 [Compound 448, (R)-6-((3,3-difluoropyrrolidin-1-yl)methyl)-2-(3-(1,1,2-trifluoro-1-(4-methyl-4H-1,2,4-triazol-3-yl)propan-2-yl)phenyl)-4-(trifluoromethyl)isoindolin-1-one] | – | – | 0.101 to 0.15 | > 0.201 | D (D indicates 1.00-1.50) | E (E indicates <1.00) | D (D indicates 1.00-1.50) | E (E indicates <1.00) | D (D indicates 1.00-1.50) | E (E indicates <1.00) |
| Cn1cnnc1CC1(c2cccc(N3Cc4c(cc(CN5CC6(CC6)C5)cc4C(F)(F)F)C3=O)c2)COC1 [Compound 487, 6-{5-azaspiro[2.3]hexan-5-ylmethyl}-2-(3-{3-[(4-methyl-1,2,4-triazol-3-yl)methyl]oxetan-3-yl}phenyl)-4-(trifluoromethyl)-3H-isoindol-1-one] | – | – | > 0.201 | – | – | – | C (C indicates 1.51-2.00) | D (D indicates 1.00-1.50) | – | – |
| Cn1cnnc1CC1(c2cccc(NC(=O)c3cc(CN4CC[C@H](F)C4)cc(C4CC4)n3)c2)COC1 [Compound 496, 6-cyclopropyl-4-{[(3S)-3-fluoropyrrolidin-1-yl]methyl}-N-(3-{3-[(4-methyl-1,2,4-triazol-3-yl)methyl]oxetan-3-yl}phenyl)pyridine-2-carboxamide] | – | – | > 0.201 | – | – | – | C (C indicates 1.51-2.00) | D (D indicates 1.00-1.50) | – | – |
| C[C@@H](c1cc2c(c(C(F)(F)F)c1)CN(c1cccc(C3(Cc4nncn4C)COC3)c1)C2=O)N1C[C@H]2C[C@H]2C1 [Compound 541a, 6-((1S)-1-(3-azabicyclo[3.1.0]hexan-3-yl)ethyl)-2-(3-(3-((4-methyl-4H-1,2,4-triazol-3-yl)methyl)oxetan-3-yl)phenyl)-4-(trifluoromethyl)isoindolin-1-one] | – | – | > 0.201 | – | – | – | D (D indicates 1.00-1.50) | D (D indicates 1.00-1.50) | – | – |
| C[C@@H](c1cc2c(c(C(F)(F)F)c1)CN(c1cccc(C3(Cc4nncn4C)COC3)c1)C2=O)N1CCC(C)(F)CC1 [Example 553a, (S)-6-(1-(4-fluoro-4-methylpiperidin-1-yl)ethyl)-2-(3-(3-((4-methyl-4H-1,2,4-triazol-3-yl)methyl)oxetan-3-yl)phenyl)-4-(trifluoromethyl)isoindolin-1-one] | – | – | > 0.201 | – | – | – | D (D indicates 1.00-1.50) | D (D indicates 1.00-1.50) | – | – |
| C[C@H](c1cc2c(c(C(F)(F)F)c1)CN(c1cccc(C3(Cc4nncn4C)COC3)c1)C2=O)N1CCC(C)(F)CC1 [Example 553b, (R)-6-(1-(4-fluoro-4-methylpiperidin-1-yl)ethyl)-2-(3-(3-((4-methyl-4H-1,2,4-triazol-3-yl)methyl)oxetan-3-yl)phenyl)-4-(trifluoromethyl)isoindolin-1-one] | – | – | > 0.201 | – | – | – | A (A indicates >2.50) | D (D indicates 1.00-1.50) | – | – |
